# From ChEMBL document CHEMBL1201862, “PubChem BioAssay data set” (2004)
# Calls of active or inactive are those of the source.
# How the values were obtained:
# [1] = biological target: Protein disulfide-isomerase (Homo sapiens, UniProt P07237); test: inhibition of PDI-driven insulin aggregation – biochemical, turbidity, absorbance, cherry-picked samples, dose response (AID 602350); type: functional
# [2] = biological target: Glycogen synthase kinase-3 beta (Homo sapiens, UniProt P49841); type: functional;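 also: value comes from a broad kinome profiling panel, with GSK3B as the panel member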
# [3] = biological target: cAMP-dependent protein kinase catalytic subunit alpha (Homo sapiens, UniProt P17612); type: functional
# [4] = biological target: Interleukin-1 receptor-associated kinase 4 (Homo sapiens, UniProt Q9NWZ3); type: functional
# [5] = biological target: Cell division cycle 7-related protein kinase (Homo sapiens, UniProt O00311); type: functional;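 also: value obtained from a kinome-wide kinase panel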
# [6] = biological target: MAP kinase-interacting serine/threonine-protein kinase 2 (Homo sapiens, UniProt Q9HBH9); type: functional
# [7] = biological target: Cyclin-dependent kinase 2 (Homo sapiens, UniProt P24941); type: functional;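 also: CDK2 measured as one member of a broad kinome profiling panel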
# [8] = biological target: Serine/threonine-protein kinase pim-1 (Homo sapiens, UniProt P11309); type: functional
# [9] = biological target: Homeodomain-interacting protein kinase 2 (Homo sapiens, UniProt Q9H2X6); type: functional;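 also: measured within a kinome-wide kinase profiling panel, HIPK2 being one panel member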
# [10] = biological target: Dual specificity protein kinase CLK4 (Homo sapiens, UniProt Q9HAZ1); type: functional
# [11] = biological target: Mitogen-activated protein kinase kinase kinase kinase 4 (Homo sapiens, UniProt O95819); type: functional
# [12] = biological target: Heat shock protein HSP 90-alpha (Homo sapiens, UniProt P07900); type: functional, organism-based
# Streptokinase A = biological target: T1, Streptokinase A (Streptococcus pyogenes serotype M1, UniProt P10520); test: viability-normalized secreted streptokinase activity reduction – plasminogen activation absorbance, OD405, dose response (AID 1914); type: functional, Streptococcus pyogenes M1 GAS;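 also: secreted streptokinase activity via plasminogen activation per viability signal from cell pellet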
# T1 sequence (P10520 whole entry): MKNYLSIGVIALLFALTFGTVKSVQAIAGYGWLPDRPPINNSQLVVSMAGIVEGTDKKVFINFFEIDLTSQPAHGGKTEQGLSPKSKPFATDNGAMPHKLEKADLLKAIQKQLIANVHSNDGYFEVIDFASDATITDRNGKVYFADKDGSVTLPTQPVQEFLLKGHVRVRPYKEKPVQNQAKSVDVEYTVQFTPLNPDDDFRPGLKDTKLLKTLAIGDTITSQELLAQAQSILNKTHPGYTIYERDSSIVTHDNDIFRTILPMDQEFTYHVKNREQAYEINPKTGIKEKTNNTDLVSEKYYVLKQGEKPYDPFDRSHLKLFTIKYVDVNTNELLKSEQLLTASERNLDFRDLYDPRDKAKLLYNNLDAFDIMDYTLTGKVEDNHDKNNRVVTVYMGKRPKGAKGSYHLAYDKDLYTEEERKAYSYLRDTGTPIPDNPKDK
# [13] = system: Streptococcus sp. 'group A'; test: Streptococcus pyogenes SK(-)GAS viability under kanamycin – luminescence, BacTiterGlo, confirmation, counter-screen for streptokinase expression inhibitor project, dose response (AID 1900); type: functional, organism-based
# [14] = Vero cell cytotoxicity, cytotoxicity control for M. tuberculosis inhibitor project, purified and synthesized samples, set 3 (AID 504684); type: functional
# [15] = THP-1 cell cytotoxicity, cytotoxicity control, set 4 (AID 504911); type: functional; settings: Mycobacterium tuberculosis
# BJ [16] = test: BJ-TERT-LT-ST fibroblast viability loss – cell-based, RAS-independent, luminescence, dose response (AID 1935); type: functional; settings: Homo sapiens;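 also: BJ fibroblasts immortalized with TERT plus LT and ST oncogenes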
# INS1 = test: INS-1E survival protection against cytokine death – cell-based, luminescence, retest, dose response (AID 449756); type: functional; settings: Rattus norvegicus;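 also: cell death triggered by IL-1 beta plus TNF-alpha plus IFN-gamma mixture; protective hits raise ATP signal compared with cytokine alone wells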
# BJ [17] = test: BJ-TERT fibroblast viability loss – cell-based, RAS-independent, luminescence, dose response (AID 1933); type: functional; settings: Homo sapiens
# [18] = A Cell Based Secondary Assay to Explore Cytotoxicity in HepG2 Cells of Compounds that Modulate Mycobacterium tuberculosis in Media Containing Glycerol versus Media without Glycerol (2).; type: functional
# [19] = microbe, parasite or virus in culture; type: functional; settings: Mycobacterium tuberculosis
# [20] = biological target: T2, Heat shock factor protein 1 (Mus musculus, UniProt P38532); test: enhancement of HSF1-driven luciferase signal – cell-based, NIH3T3, luminescence, dose retest, confirmation (AID 435004); type: functional;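 also: stress induced by proteasome inhibitor MG132 added 30 min after compound; luciferase reporter driven by HSF1 response element in NIH3T3 cells; actives raise luminescence as potentiators of the MG132 stress response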
# T2 sequence (P38532 whole entry): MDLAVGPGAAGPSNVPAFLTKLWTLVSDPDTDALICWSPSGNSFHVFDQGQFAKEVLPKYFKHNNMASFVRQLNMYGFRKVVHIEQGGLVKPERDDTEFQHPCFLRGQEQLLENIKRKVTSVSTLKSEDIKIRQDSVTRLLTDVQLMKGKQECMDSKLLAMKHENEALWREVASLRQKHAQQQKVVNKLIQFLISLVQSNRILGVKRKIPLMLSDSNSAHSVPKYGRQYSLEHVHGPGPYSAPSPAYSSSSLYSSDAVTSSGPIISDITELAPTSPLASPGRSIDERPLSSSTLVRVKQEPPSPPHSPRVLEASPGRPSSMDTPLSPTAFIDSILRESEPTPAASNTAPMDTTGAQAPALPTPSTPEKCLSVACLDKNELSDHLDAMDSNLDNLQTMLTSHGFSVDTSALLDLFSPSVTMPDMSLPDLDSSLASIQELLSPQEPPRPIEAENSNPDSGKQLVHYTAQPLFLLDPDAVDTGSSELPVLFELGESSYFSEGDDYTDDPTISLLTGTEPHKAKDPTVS
# [21] = THP-1 cell cytotoxicity, dose response, cytotoxicity control, set 3 (AID 504852); type: functional; settings: Mycobacterium tuberculosis
# [22] = A Cell Based Secondary Assay to Explore Cytotoxicity in THP-1 Cells of Compounds that Modulate Mycobacterium tuberculosis in Media Containing Glycerol versus Media without Glycerol (2).; type: functional
# [23] = DRD fibroblast viability loss – cell-based, non-viral oncogenic, luminescence, dose response (AID 1934); type: functional; settings: Homo sapiens
# BJ [24] = test: cells; type: functional, cell-based; settings: Homo sapiens
# Streptococcus = test: GAS UMAA2166 growth inhibition – luminescence, BacTiterGlo, counter-screen for streptokinase expression inhibitor project, dose response (AID 1915); type: functional, organism-based;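 also: potency for reduction of bacterial viability or growth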
# Melanocortin receptor 4 = Melanocortin receptor 4 (Homo sapiens, UniProt P32245); test: inhibitors of MC4R cAMP signaling – cell-based, TR-FRET, biased antagonists, dose response (AID 602298); type: functional;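 also: antagonist potency against agonist-stimulated cAMP production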
# [25] = cAMP pathway inhibition in counterscreen cell line – TR-FRET cAMP detection, counter-screen for MC4R biased antagonist project, dose response (AID 602305); type: functional, cell-based;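 also: U2OS cells stimulated with forskolin near its EC80 as the cAMP inducer; potency is for inhibition of forskolin-stimulated cAMP signaling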
# [26] = biological target: Melanin-concentrating hormone receptor 1 (Homo sapiens, UniProt Q99705); test: Late-stage fluorescence-based counterscreen for antagonists of the G-protein coupled receptor 7 (GPR7): cell-based dose response assay to identify antagonists of the melanin-concentrating hormone receptor 1 (MCHR1). [Related pubchem assays (depositor defined):AID1861, AID1880, AID1952, AID2148, AID2251, AID2257, AID485339]; type: functional;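 also: stimulated with 30 nM MCH peptide agonist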
# [27] = Late-stage luminescence-based cell-based dose response assay to identify antagonists of the G-protein coupled receptor 7 (GPR7): Cytotoxicity assay. [Related pubchem assays (depositor defined):AID1861, AID1880, AID1952, AID2148, AID2251, AID2257, AID485339]; type: functional
# [28] = Late-stage results from the probe development effort to identify antagonists of the G-protein coupled receptor 7 (GPR7): luminescence-based cell-based dose response counterscreen assay to determine cytotoxicity of antagonist compounds Set 2.; type: functional
# [29] = biological target: Dual specificity tyrosine-phosphorylation-regulated kinase 1B (Homo sapiens, UniProt Q9Y463); test: Navigating the Kinome. Panel member name: DYRK1B; type: functional
# [30] = biological target: Macrophage colony-stimulating factor 1 receptor (Homo sapiens, UniProt P07333); type: functional;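 also: value comes from the Navigating the Kinome screening panel, CSF1R member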
# [31] = biological target: Cyclin-dependent kinase 9 (Homo sapiens, UniProt P50750); type: functional;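 also: value from the CDK9 entry of a kinome-spanning kinase panel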
# [32] = biological target: Glycogen synthase kinase-3 alpha (Homo sapiens, UniProt P49840); type: functional;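 also: GSK3A result taken from a broad kinome-wide kinase panel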
# Aurora kinase A = Aurora kinase A (Homo sapiens, UniProt O14965); type: functional;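 also: value from the Navigating the Kinome kinase panel profiling, panel entry STK6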
# [33] = biological target: Vascular endothelial growth factor receptor 2 (Homo sapiens, UniProt P35968); type: functional
# [34] = biological target: Cyclin-dependent kinase 19 (Homo sapiens, UniProt Q9BWU1); test: Navigating the Kinome. Panel member name: CDC2L6; type: functional
# [35] = biological target: Cyclin-dependent kinase 8 (Homo sapiens, UniProt P49336); test: Navigating the Kinome. Panel member name: CDK8; type: functional
# [36] = biological target: Death-associated protein kinase 3 (Homo sapiens, UniProt O43293); type: functional;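 also: measured as one member of a kinome-wide profiling panel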
# Activated CDC42 kinase 1 = Activated CDC42 kinase 1 (Homo sapiens, UniProt Q07912); test: Navigating the Kinome. Panel member name: ACK1; type: functional
# [37] = biological target: Dual specificity tyrosine-phosphorylation-regulated kinase 1A (Homo sapiens, UniProt Q13627); type: functional;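 also: measured against DYRK1A as one member of a broad kinome profiling panel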
# [38] = biological target: Cyclin-dependent kinase 5 (Homo sapiens, UniProt Q00535); type: functional;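 also: CDK5 measured as one member of a kinase profiling panel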
# [39] = biological target: Proto-oncogene tyrosine-protein kinase receptor Ret (Homo sapiens, UniProt P07949); type: functional;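 also: measured within a kinome-wide profiling panel, RET as the panel member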
# Focal adhesion kinase 1 = Focal adhesion kinase 1 (Homo sapiens, UniProt Q05397); type: functional;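 also: measured as one member of a kinome panel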
# [40] = biological target: Protein kinase C theta type (Homo sapiens, UniProt Q04759); test: Navigating the Kinome. Panel member name: PRKCQ; type: functional
# [41] = biological target: Sphingosine 1-phosphate receptor 1 (Homo sapiens, UniProt P21453); test: Late-stage fluorescence-based dose-response cell-based counterscreen assay to identify agonists of the Sphingosine 1-Phosphate Receptor 4 (S1P4): Sphingosine 1-Phosphate Receptor 1 (S1P1) agonist assay Set 2.; type: functional
# [42] = biological target: Sphingosine 1-phosphate receptor 2 (Homo sapiens, UniProt O95136); test: activation of human S1P2 receptor – cell-based, fluorescence, set 2, counter-screen for S1P4 agonist project, late-stage follow-up (AID 504873); type: functional
# [43] = biological target: Sphingosine 1-phosphate receptor 3 (Homo sapiens, UniProt Q99500); test: Late-stage fluorescence-based dose-response cell-based counterscreen assay to identify agonists of the Sphingosine 1-Phosphate Receptor 4 (S1P4): Sphingosine 1-Phosphate Receptor 3 (S1P3) agonist assay Set 2.; type: functional
# [44] = biological target: Sphingosine 1-phosphate receptor 5 (Homo sapiens, UniProt Q9H228); test: activation of human S1P5 receptor – cell-based, fluorescence, set 2, counter-screen for S1P4 agonist project, late-stage follow-up (AID 504867); type: functional
# [45] = biological target: DNA dC->dU-editing enzyme APOBEC-3G (Homo sapiens, UniProt Q9HC16); test: SAR analysis of small molecule inhibitors of APOBEC3G DNA Deaminase via a fluorescence-based single-stranded DNA deaminase assay - Set 2.; type: functional; settings: read-out: IC50_Mean
# [46] = biological target: DNA dC->dU-editing enzyme APOBEC-3A (Homo sapiens, UniProt P31941); test: SAR analysis of small molecule inhibitors of APOBEC3A DNA Deaminase via a fluorescence-based single-stranded DNA deaminase assay - Set 2.; type: functional; settings: read-out: IC50_Mean
# Chain of DNA dC->dU-editing enzyme APOBEC-3A (P31941 whole entry): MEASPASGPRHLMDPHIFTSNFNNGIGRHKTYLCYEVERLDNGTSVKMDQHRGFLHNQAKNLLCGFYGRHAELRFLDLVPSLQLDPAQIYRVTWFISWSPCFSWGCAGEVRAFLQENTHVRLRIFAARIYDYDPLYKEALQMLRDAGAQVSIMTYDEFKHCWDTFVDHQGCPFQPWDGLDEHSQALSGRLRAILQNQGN
# Chain of Dual specificity protein kinase CLK4 (Q9HAZ1 whole entry): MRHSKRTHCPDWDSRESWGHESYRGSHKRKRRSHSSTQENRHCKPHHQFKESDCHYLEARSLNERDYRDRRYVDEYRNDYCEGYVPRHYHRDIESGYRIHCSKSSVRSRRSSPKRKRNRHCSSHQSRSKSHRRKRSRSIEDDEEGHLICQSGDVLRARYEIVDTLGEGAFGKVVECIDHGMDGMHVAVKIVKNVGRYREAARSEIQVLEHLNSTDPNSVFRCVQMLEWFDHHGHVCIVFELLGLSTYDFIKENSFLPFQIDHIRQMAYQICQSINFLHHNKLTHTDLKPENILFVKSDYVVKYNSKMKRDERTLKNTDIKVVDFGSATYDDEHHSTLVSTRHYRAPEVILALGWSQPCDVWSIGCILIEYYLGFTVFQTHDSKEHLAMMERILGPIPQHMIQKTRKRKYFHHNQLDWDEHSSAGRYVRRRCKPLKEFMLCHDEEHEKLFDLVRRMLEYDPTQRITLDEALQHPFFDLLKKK
# Chain of Glycogen synthase kinase-3 beta (P49841 whole entry): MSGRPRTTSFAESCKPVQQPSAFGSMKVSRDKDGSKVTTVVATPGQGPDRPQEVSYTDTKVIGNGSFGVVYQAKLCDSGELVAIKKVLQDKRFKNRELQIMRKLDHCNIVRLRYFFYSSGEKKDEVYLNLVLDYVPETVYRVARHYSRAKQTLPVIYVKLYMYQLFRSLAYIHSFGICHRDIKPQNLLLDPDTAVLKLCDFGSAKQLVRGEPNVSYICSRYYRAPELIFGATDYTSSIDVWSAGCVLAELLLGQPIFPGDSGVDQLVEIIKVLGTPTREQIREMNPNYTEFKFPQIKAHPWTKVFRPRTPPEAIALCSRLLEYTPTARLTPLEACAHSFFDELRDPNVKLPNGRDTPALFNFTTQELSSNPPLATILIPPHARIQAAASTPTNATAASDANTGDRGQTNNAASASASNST
# Chain of Melanin-concentrating hormone receptor 1 (Q99705 whole entry): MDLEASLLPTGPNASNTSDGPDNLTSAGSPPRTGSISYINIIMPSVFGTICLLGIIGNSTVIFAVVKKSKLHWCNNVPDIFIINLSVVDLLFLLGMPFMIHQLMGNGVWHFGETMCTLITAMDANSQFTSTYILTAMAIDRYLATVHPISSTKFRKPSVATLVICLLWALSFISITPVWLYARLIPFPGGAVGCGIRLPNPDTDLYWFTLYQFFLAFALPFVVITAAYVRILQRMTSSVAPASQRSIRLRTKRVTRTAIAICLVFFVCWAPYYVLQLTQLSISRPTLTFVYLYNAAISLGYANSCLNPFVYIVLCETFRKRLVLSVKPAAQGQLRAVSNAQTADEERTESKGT
# Chain of Homeodomain-interacting protein kinase 2 (Q9H2X6 whole entry): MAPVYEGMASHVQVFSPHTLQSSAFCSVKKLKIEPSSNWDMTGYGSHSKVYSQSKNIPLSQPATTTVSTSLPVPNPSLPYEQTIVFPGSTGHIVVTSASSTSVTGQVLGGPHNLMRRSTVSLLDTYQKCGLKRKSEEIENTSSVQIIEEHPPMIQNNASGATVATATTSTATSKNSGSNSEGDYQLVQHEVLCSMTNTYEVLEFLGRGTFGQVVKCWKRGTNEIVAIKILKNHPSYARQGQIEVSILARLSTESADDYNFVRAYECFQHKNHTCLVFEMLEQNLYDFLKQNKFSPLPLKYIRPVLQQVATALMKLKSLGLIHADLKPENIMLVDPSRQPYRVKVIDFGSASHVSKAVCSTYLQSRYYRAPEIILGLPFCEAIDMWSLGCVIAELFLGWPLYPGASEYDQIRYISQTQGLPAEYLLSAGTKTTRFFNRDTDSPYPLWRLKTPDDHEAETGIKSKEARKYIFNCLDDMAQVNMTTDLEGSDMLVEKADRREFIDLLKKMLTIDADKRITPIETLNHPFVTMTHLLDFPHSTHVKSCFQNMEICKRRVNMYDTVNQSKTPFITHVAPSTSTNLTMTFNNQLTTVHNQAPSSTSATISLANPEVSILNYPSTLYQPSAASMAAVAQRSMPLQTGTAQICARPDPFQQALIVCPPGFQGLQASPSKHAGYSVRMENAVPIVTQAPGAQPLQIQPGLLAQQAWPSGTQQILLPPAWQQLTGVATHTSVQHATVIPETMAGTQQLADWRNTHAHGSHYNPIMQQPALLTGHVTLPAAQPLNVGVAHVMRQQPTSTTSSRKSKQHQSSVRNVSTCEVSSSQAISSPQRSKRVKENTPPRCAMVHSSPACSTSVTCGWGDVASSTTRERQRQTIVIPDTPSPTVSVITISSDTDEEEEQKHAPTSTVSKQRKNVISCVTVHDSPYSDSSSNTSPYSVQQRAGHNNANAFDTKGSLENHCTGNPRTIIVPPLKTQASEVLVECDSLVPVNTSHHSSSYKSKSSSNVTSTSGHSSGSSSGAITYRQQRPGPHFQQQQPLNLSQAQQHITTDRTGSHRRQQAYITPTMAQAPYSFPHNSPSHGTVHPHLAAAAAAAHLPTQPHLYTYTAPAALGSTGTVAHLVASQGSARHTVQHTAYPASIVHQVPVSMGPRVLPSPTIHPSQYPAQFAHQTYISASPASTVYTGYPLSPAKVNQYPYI
# Chain of DNA dC->dU-editing enzyme APOBEC-3G (Q9HC16 whole entry): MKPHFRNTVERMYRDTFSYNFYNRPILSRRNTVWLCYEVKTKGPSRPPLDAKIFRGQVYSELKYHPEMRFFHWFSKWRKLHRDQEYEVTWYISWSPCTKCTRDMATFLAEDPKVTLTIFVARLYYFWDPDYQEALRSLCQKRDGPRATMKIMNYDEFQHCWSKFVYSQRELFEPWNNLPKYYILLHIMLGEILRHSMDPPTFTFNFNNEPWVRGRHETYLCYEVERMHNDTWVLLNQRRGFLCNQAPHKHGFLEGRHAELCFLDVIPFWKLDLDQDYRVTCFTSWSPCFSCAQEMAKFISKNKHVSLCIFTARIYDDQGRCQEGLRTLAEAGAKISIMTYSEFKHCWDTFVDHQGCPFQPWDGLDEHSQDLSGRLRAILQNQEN
# Chain of Protein disulfide-isomerase (P07237 whole entry): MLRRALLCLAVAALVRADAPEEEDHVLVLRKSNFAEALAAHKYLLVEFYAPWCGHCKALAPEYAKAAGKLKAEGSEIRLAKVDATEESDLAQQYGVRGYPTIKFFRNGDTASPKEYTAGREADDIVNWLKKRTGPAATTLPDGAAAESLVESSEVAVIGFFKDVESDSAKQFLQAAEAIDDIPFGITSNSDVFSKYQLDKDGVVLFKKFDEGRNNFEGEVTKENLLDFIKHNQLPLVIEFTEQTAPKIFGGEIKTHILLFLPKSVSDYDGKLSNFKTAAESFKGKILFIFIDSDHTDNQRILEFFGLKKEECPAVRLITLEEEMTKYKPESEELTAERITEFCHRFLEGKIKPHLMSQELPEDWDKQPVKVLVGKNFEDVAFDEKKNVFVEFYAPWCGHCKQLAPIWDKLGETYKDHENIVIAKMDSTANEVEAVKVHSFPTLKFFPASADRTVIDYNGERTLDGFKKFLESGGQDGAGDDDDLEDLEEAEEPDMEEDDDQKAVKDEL
# Chain of Death-associated protein kinase 3 (O43293 whole entry): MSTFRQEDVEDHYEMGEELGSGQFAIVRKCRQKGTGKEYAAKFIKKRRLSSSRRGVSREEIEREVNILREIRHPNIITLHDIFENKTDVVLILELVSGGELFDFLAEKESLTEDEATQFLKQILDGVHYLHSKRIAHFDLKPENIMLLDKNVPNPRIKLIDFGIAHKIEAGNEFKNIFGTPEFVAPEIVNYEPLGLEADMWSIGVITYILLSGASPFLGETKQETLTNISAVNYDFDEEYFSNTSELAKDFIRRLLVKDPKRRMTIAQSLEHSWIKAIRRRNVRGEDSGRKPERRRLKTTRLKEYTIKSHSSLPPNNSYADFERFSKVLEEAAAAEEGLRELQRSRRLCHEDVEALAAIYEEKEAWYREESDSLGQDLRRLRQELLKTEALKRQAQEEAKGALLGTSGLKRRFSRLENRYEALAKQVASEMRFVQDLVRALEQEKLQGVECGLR
# Chain of Macrophage colony-stimulating factor 1 receptor (P07333 whole entry): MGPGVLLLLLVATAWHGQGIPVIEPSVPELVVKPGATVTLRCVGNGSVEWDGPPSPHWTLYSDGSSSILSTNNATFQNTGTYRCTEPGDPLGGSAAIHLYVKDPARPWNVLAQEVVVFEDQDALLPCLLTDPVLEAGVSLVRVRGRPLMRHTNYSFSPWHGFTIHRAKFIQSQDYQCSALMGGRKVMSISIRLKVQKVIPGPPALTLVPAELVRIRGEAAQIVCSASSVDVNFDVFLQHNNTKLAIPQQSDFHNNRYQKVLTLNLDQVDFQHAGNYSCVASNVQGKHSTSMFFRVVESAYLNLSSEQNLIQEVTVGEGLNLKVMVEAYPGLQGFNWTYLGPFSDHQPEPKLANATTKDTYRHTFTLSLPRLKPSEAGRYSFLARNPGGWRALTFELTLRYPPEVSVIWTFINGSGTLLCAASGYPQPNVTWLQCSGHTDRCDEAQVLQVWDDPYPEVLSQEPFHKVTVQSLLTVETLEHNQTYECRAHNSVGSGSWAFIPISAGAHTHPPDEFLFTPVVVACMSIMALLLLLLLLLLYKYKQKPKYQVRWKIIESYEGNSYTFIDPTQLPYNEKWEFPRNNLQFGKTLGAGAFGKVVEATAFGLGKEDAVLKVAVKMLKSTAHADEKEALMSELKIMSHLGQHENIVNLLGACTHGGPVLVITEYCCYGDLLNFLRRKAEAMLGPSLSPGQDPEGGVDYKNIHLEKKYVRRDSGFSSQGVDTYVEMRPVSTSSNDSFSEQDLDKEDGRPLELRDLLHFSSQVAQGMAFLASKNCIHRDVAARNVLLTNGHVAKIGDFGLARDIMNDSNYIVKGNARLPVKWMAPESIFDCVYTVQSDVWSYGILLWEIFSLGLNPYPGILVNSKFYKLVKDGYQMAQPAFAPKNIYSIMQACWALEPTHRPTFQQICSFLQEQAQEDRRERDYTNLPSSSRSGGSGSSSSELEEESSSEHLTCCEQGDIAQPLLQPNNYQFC
structure (smiles),measurement,setting,value
O=c1c(O[C@H]2O[C@@H](CO)[C@H](O)[C@@H](O)[C@@H]2O)c(-c2ccc(O)cc2)oc2cc(O)cc(O)c12,AC50,[1],0.0155 µM (active)
O=C(O)c1ccccc1Nc1ccnc(NCc2cccc(O)c2)n1,Ki,[2],1.26 µM (active)
same,Ki,[3],> 7.94 µM (inactive)
same,Ki,[4],> 10 µM (inactive)
same,Ki,[5],0.0316 µM (active)
same,Ki,[6],> 10 µM (inactive)
same,Ki,[7],> 7.94 µM (inactive)
same,Ki,[8],2 µM (active)
same,Ki,[9],> 3.16 µM (inactive)
same,Ki,[10],5.01 µM (active)
same,Ki,[11],0.631 µM (active)
Cc1cccc(/C=C/C(=O)c2ccc([N+](=O)[O-])o2)c1,AC50,[12],2.39 µM (active)
same,EC50,Streptokinase A,9.69 µM (active)
same,EC50,[13],3.96 µM (active)
same,CC50,[14],12.4 µM (active)
same,CC50,[15],> 100 µM (active)
same,EC50,BJ [16],> 150 µM (inconclusive)
same,AC50,INS1,3.29 µM (active)
same,EC50,BJ [17],> 150 µM (not active)
same,CC50,[18],8.39 µM (active)
same,CC50,[19],18.8 µM (active)
same,EC50,[20],3.43 µM (inconclusive)
same,CC50,[21],> 100 µM (active)
same,CC50,[22],12.2 µM (active)
same,EC50,[23],2.23 µM (active)
same,EC50,BJ [24],> 150 µM (inconclusive)
same,EC50,Streptococcus,14.4 µM (active)
O=C(Nc1ccccc1)OC1CCC2CC1CCC2OC(=O)Nc1ccccc1 (stereo unspecified),IC50,Melanocortin receptor 4,7.46 µM (active)
same,IC50,[25],> 64.6 µM (inactive)
COc1ccc(Oc2c(Cl)cnn(-c3cc(C)cc(C)c3)c2=O)cc1,IC50,[26],3.9 µM (active)
same,CC50,[27],> 20 µM (inactive)
same,CC50,[28],> 20 µM (inactive)
O=C1CN2C(=NN1)COc1ccccc12,Ki,[29],31.6 µM (active)
same,Ki,[2],31.6 µM (active)
same,Ki,[30],> 100 µM (inactive)
same,Ki,[31],> 63.1 µM (inactive)
same,Ki,[3],39.8 µM (active)
same,Ki,[32],50.1 µM (active)
same,Ki,Aurora kinase A,> 63.1 µM (inactive)
same,Ki,[33],> 100 µM (inactive)
same,Ki,[34],> 100 µM (inactive)
same,Ki,[35],3.98 µM (active)
same,Ki,[36],10 µM (active)
same,Ki,Activated CDC42 kinase 1,25.1 µM (active)
same,Ki,[37],63.1 µM (active)
same,Ki,[38],5.01 µM (active)
same,Ki,[39],50.1 µM (active)
same,Ki,Focal adhesion kinase 1,100 µM (active)
same,Ki,[10],3.98 µM (active)
same,Ki,[40],3.98 µM (active)
CC/N=C1/S/C(=C/c2cc(C)n(-c3ccc(Cl)cc3F)c2C)C(=O)N1CC,EC50,[41],0.274 µM (active)
same,EC50,[42],> 25 µM (inactive)
same,EC50,[43],> 25 µM (inactive)
same,EC50,[44],0.0367 µM (active)
O=C(O)c1cc2nccc(-c3cccs3)n2n1,IC50,[45],> 99 µM (inactive)
same,IC50,[46],> 99 µM (inactive)
